# Results published in publication PMC10410440, “Preclinical PK investigation of a novel IDO1/TDO dual inhibitor—SHR9146 in mouse plasma and tissues by LC-MS/MS” (Frontiers in Oncology, 2023).
# Entries after “also recorded” stand apart in the source; their conditions may differ. Like-named read-outs stand apart in the source and are kept apart here.
# Assay: Tissue distribution of SHR9146 in mice after oral gavage of 40 mg/kg
# Type: in vivo, ICR mice
# Conditions: for concentration at 6 h / concentration at 24 h / concentration at 1 h / concentration at 3 h: male, ICR, mouse, po, 40 mg/kg oral gavage
# Protocol: ICR mice with body weight 16–26 g were supplied by Shanghai Lingchang Biotechnology Co., Ltd. (animal breeding license number SCXK (Shanghai) 2013-0018) and housed at Shanghai Institute of Materia Medica, Chinese Academy of Sciences [animal use license number SYXK (Shanghai) 2015-0027]. The mice used in this study were fasted overnight for 12 h but had free access to water. Food was supplied 4 h post-dose. All experiments in this study were conducted in accordance with the Guidelines for the Care and Use of Laboratory Animals of Shanghai Institute of Materia Medica, Chinese Academy of Sciences.
# Another set of 30 mice were randomly assigned into five groups with equal numbers, males and females, for tissue distribution study with oral gavage at a single dose of 40 mg/kg at predetermined different time points: pre-dose and post dose at 1, 3, 6, and 24 h, respectively. The whole brain, heart, liver, spleen, lung, kidney, bladder, pancreas, testis, ovary, uterus, stomach, small intestine, adrenal gland, skin, skeletal muscle, thyroid gland, and abdominal fat tissues as well as the whole blood and plasma samples were harvested. Tissue samples were washed with 0.9% sodium chloride solution to remove the residual blood or contents, blotted on a filter paper, and stored at −70°C prior to the analysis.
# Protein precipitation was selected for the pretreatment of both the plasma and the tissue homogenate prepared after thawing at room temperature, cut into pieces, and homogenized with a quintuple methanol–water mixture (1:1, v/v) for each tissue sample.
# Briefly as follows, an aliquot of 25-μL plasma or tissue homogenate was spiked with 100 μL of internal standard solution (1 μg/mL for plasma, 0.2 μg/mL for tissue homogenate) and 300 μL of methanol added and vortex mixed for 60 s. The mixture was then centrifuged at 14,000 rpm at 4°C for 5.0 min, and the supernatant was diluted with methanol–water (4:1, v/v) in a ratio of 1:9 for the plasma or 1:1 for the tissue homogenate, and 5 μL of the resulting solution was injected for the LC-MS/MS analysis.
# After oral administration of 40 mg/kg SHR9146, samples in different tissues at predetermined time points (pre-drug administration, post-drug administration at 1, 3, 6, and 24 h) were collected and prepared for the analysis. The drug concentrations of SHR9146 (μg/g or μg/mL) were determined for each mouse, and the mean and standard deviation were further obtained (Table S7).
# [1] = kidney, 40 mg/kg, Mean (n=3), read-out: SHR9146 concentration in Kidney
# [2] = liver, 40 mg/kg, Mean (n=3), read-out: SHR9146 concentration in Liver
# [3] = liver, 40 mg/kg, individual mice, read-out: SHR9146 concentration in Liver
# [4] = lung, 40 mg/kg, Mean (n=3), read-out: SHR9146 concentration in Lung
# [5] = lung, 40 mg/kg, individual mice, read-out: SHR9146 concentration in Lung
# [6] = pancreas, 40 mg/kg, Mean (n=3), read-out: SHR9146 concentration in Pancreas
# [7] = pancreas, 40 mg/kg, individual mice, read-out: SHR9146 concentration in Pancreas
# [8] = plasma, 40 mg/kg, Mean (n=3), read-out: SHR9146 concentration in Plasma
# [9] = plasma, 40 mg/kg, individual mice, read-out: SHR9146 concentration in Plasma
# [10] = skeletal muscle, 40 mg/kg, Mean (n=3), read-out: SHR9146 concentration in Skeletal muscle
# [11] = skeletal muscle, 40 mg/kg, individual mice, read-out: SHR9146 concentration in Skeletal muscle
# [12] = skin, 40 mg/kg, Mean (n=3), read-out: SHR9146 concentration in Skin
# [13] = small intestine, 40 mg/kg, Mean (n=3), read-out: SHR9146 concentration in Small intestine
# [14] = small intestine, 40 mg/kg, individual mice, read-out: SHR9146 concentration in Small intestine
# [15] = spleen, 40 mg/kg, Mean (n=3), read-out: SHR9146 concentration in Spleen
# [16] = spleen, 40 mg/kg, individual mice, read-out: SHR9146 concentration in Spleen
# [17] = stomach, 40 mg/kg, Mean (n=3), read-out: SHR9146 concentration in Stomach
# [18] = testis, 40 mg/kg, Mean (n=3), read-out: SHR9146 concentration in Testis
# [19] = thyroid gland, 40 mg/kg, Mean (n=3), read-out: SHR9146 concentration in thyroid gland
# [20] = thyroid gland, 40 mg/kg, individual mice, read-out: SHR9146 concentration in thyroid gland
# [21] = whole blood, 40 mg/kg, Mean (n=3), read-out: SHR9146 concentration in Whole blood
# [22] = whole blood, 40 mg/kg, individual mice, read-out: SHR9146 concentration in Whole blood
smiles,measurement,setting,value
OCCn1cc(-c2ccc(N3CCC([C@H]4c5c(F)cccc5-c5cncn54)CC3)cc2)cn1 [SHR9146],concentration at 6 h,[1],210 ng/g
same,concentration at 24 h,[1],18 ng/g
same,concentration at 24 h,"kidney, 40 mg/kg, individual mice, read-out: SHR9146 concentration in Kidney",55 ng/g
same,concentration at 1 h,[2],20000 ng/g
same,concentration at 1 h,[3],22000 ng/g
same,concentration at 3 h,[2],9670 ng/g
same,concentration at 6 h,[2],633 ng/g
same,concentration at 24 h,[2],110 ng/g
same,concentration at 24 h,[3],330 ng/g
same,concentration at 1 h,[4],12500 ng/g
same,concentration at 1 h,[5],13100 ng/g
same,concentration at 3 h,[4],5160 ng/g
same,concentration at 6 h,[4],645 ng/g
same,concentration at 6 h,[5],725 ng/g
same,concentration at 24 h,[4],11700 ng/g
same,concentration at 1 h,[6],12600 ng/g
same,concentration at 1 h,[7],13800 ng/g
same,concentration at 3 h,[6],4870 ng/g
same,concentration at 6 h,[6],67 ng/g
same,concentration at 6 h,[7],74 ng/g
same,concentration at 1 h,[8],9120 ng/mL
same,concentration at 1 h,[9],10100 ng/mL
same,concentration at 3 h,[8],3710 ng/mL
same,concentration at 6 h,[8],49 ng/mL
same,concentration at 6 h,[9],53 ng/mL
same,concentration at 1 h,[10],5600 ng/g
same,concentration at 1 h,[11],6100 ng/g
same,concentration at 3 h,[10],2220 ng/g
same,concentration at 6 h,[10],23 ng/g
same,concentration at 6 h,[11],70 ng/g
same,concentration at 1 h,[12],7210 ng/g
same,concentration at 3 h,[12],3110 ng/g
same,concentration at 6 h,[12],113 ng/g
same,concentration at 24 h,[12],21 ng/g
same,concentration at 24 h,"skin, 40 mg/kg, individual mice, read-out: SHR9146 concentration in Skin",64 ng/g
same,concentration at 1 h,[13],22700 ng/g
same,concentration at 1 h,[14],19200 ng/g
same,concentration at 3 h,[13],6910 ng/g
same,concentration at 6 h,[13],90 ng/g
same,concentration at 6 h,[14],117 ng/g
same,concentration at 1 h,[15],4840 ng/g
same,concentration at 1 h,[16],5540 ng/g
same,concentration at 3 h,[15],1700 ng/g
same,concentration at 6 h,[15],17 ng/g
same,concentration at 6 h,[16],51 ng/g
same,concentration at 1 h,[17],38000 ng/g
same,concentration at 1 h,"stomach, 40 mg/kg, individual mice, read-out: SHR9146 concentration in Stomach",39900 ng/g
same,concentration at 3 h,[17],10200 ng/g
same,concentration at 6 h,[17],1140 ng/g
same,concentration at 24 h,[17],499 ng/g
same,concentration at 1 h,[18],4000 ng/g
same,concentration at 1 h,"testis, 40 mg/kg, individual mice, read-out: SHR9146 concentration in Testis",4160 ng/g
same,concentration at 3 h,[18],1660 ng/g
same,concentration at 6 h,[18],100 ng/g
same,concentration at 1 h,[19],7010 ng/g
same,concentration at 1 h,[20],7250 ng/g
same,concentration at 3 h,[19],2730 ng/g
same,concentration at 6 h,[19],63 ng/g
same,concentration at 6 h,[20],71 ng/g
same,concentration at 1 h,[21],6060 ng/mL
same,concentration at 1 h,[22],6820 ng/mL
same,concentration at 3 h,[21],2440 ng/mL
same,concentration at 6 h,[21],22 ng/mL
same,concentration at 6 h,[22],67 ng/mL
same,distribution into brain,"oral 40 mg/kg, mice, 40 mg/kg",lowest; also recorded: rarely distributed in the brain
same,tissue distribution,"oral 40 mg/kg, mice, 40 mg/kg","widely distributed in various tissues and mainly distributed in the stomach, adrenal gland, liver, and lung"
same,tissue concentration at 24 h as share of the highest concentration,"oral 40 mg/kg, mice, last time point 24 h",around 3.1%
